Consider 44 molecules from patent US20160090556A1, “PRODUCTS COMPRISING MALODOR REDUCTION MATERIALS” (The Procter & Gamble Company, priority 2014, published 2016).

One data set can be described thus: Liquid dish neat product liquid-air partition coefficient. The data set is classed as physicochemical.
Conditions: not given
As to `CC12CCCC(O)(C1)C1CC(C)(C)C1CC2` (stereo not shown) [Material 574], the “Log of liquid dish neat product liquid-air partition coefficient (Comment Code K/L)” value (“Log … (Comment Code K/L)” for short) is “K (Log of liquid dish neat product liquid-air partition coefficient greater than or equal to −7)”.

Turning to `CC1=CCC(C23CCCC(C)(C2)OC3)C1(C)C` (stereo not shown) [Material 570], the “Log … (Comment Code K/L)” value is on record as “K (Log of liquid dish neat product liquid-air partition coefficient greater than or equal to −7)”.

For the molecule `CC1=CC(C)C2(CCCC(C)(C)C2=O)CC1` (stereo not shown) [Material 1022], the “Log … (Comment Code K/L)” value is “K (Log of liquid dish neat product liquid-air partition coefficient greater than or equal to −7)”.

As to `CC1CCC2C(C)(C)C3CC12CCC3(C)OC=O` (stereo not shown) [Material 566], the “Log … (Comment Code K/L)” value was “K (Log of liquid dish neat product liquid-air partition coefficient greater than or equal to −7)”.

For the molecule `C=C(C)C1CCC(C)(O)CC1` (stereo not shown) [Material 612], the “Log … (Comment Code K/L)” value is on record as “K (Log of liquid dish neat product liquid-air partition coefficient greater than or equal to −7)”.

For `COc1ccc(CC(C)C=O)cc1` (stereo not shown) [Material 586], the “Log … (Comment Code K/L)” value is listed as “K (Log of liquid dish neat product liquid-air partition coefficient greater than or equal to −7)”.

As to `CC(=O)CCCC(C)CCCC(C)CCCC(C)C` (stereo not shown) [Material 782], the “Log … (Comment Code K/L)” value is on record as “K (Log of liquid dish neat product liquid-air partition coefficient greater than or equal to −7)”.

Consider `CC(C)=CCCC(C)=C1CC=C(C)CC1` [Material 608], for which the “Log … (Comment Code K/L)” value is reported as “K (Log of liquid dish neat product liquid-air partition coefficient greater than or equal to −7)”.

`CC1=CCC(CCC(C)CO)C1(C)C` (stereo not shown) [Material 600]: the “Log … (Comment Code K/L)” value was “K (Log of liquid dish neat product liquid-air partition coefficient greater than or equal to −7)”.

On to `C=CCOC(=O)CCC1CCCCC1` [Material 746], for which the “Log … (Comment Code K/L)” value is “K (Log of liquid dish neat product liquid-air partition coefficient greater than or equal to −7)”.

As to `C=CCCC(=O)C1=CCCC2(CCCC2)C1` [Material 1038], the “Log … (Comment Code K/L)” value is “K (Log of liquid dish neat product liquid-air partition coefficient greater than or equal to −7)”.

Turning to `C=C1CC[C@@H]2[C@H]([C@H]3[C@H]1CC[C@]3(C)O)C2(C)C` [Material 1035], the “Log … (Comment Code K/L)” value is given as “K (Log of liquid dish neat product liquid-air partition coefficient greater than or equal to −7)”.

With `CC1=CCC(/C=C/C(C)(C)C(C)O)C1(C)C` (stereo not shown) [Material 985], the “Log … (Comment Code K/L)” value is reported as “K (Log of liquid dish neat product liquid-air partition coefficient greater than or equal to −7)”.

Take `CC1CC(C)(C)OC(Cc2ccccc2)O1` (stereo not shown) [Material 1003]: the “Log … (Comment Code K/L)” value is reported as “K (Log of liquid dish neat product liquid-air partition coefficient greater than or equal to −7)”.

Still in this data set, the particulars now being: class code letter within Comment Code.
In the case of `C=CC(=C)CCCC(C)(C)O` [Material 34], the “Log … (Comment Code K/L)” value is given as “K (Log of liquid dish neat product liquid-air partition coefficient greater than or equal to −7)”.

Regarding `O=C1CCCCCCCCCC/C=C/CCO1` [Material 289], the “Log … (Comment Code K/L)” value is reported as “K (Log of liquid dish neat product liquid-air partition coefficient greater than or equal to −7)”.

With `CC(O)CCc1ccccc1` (stereo not shown) [Material 98], the “Log … (Comment Code K/L)” value is reported as “K (Log of liquid dish neat product liquid-air partition coefficient greater than or equal to −7)”.

In the case of `OCCCc1ccccc1` [Material 254], the “Log … (Comment Code K/L)” value is on record as “K (Log of liquid dish neat product liquid-air partition coefficient greater than or equal to −7)”.

For `CC(=O)OCC1CC=C(CCC=C(C)C)CC1` (stereo not shown) [Material 74], the “Log … (Comment Code K/L)” value is recorded as “K (Log of liquid dish neat product liquid-air partition coefficient greater than or equal to −7)”.

As for `Cc1ccc2c(c1)CC(C)(CO)C2` (stereo not shown) [Material 161], the “Log … (Comment Code K/L)” value was “K (Log of liquid dish neat product liquid-air partition coefficient greater than or equal to −7)”.

Consider `CCCCCCCCCCCCCC#N` [Material 38], for which the “Log … (Comment Code K/L)” value is “K (Log of liquid dish neat product liquid-air partition coefficient greater than or equal to −7)”.

`CC1(CO)CC1CC1CC2CC2(C)C1(C)C` (stereo not shown) [Material 185]: the “Log … (Comment Code K/L)” value is given as “K (Log of liquid dish neat product liquid-air partition coefficient greater than or equal to −7)”.

As to `C=CC(C)=CCCC(C)(C)O` [Material 42], the “Log … (Comment Code K/L)” value was “K (Log of liquid dish neat product liquid-air partition coefficient greater than or equal to −7)”.

As for `CCCCCCC#CC(OC)OC` [Material 3], the “Log … (Comment Code K/L)” value is reported as “K (Log of liquid dish neat product liquid-air partition coefficient greater than or equal to −7)”.

Regarding `CCCCCCCCCCCC#N` [Material 498], the “Log … (Comment Code K/L)” value is on record as “K (Log of liquid dish neat product liquid-air partition coefficient greater than or equal to −7)”.

Take `CCCCCCC(=O)OCc1ccco1` [Material 339]: the “Log … (Comment Code K/L)” value was “K (Log of liquid dish neat product liquid-air partition coefficient greater than or equal to −7)”.

Take `CCCCCCCCCCCC(OC)OC` [Material 421]: the “Log … (Comment Code K/L)” value is reported as “K (Log of liquid dish neat product liquid-air partition coefficient greater than or equal to −7)”.

For the molecule `C=CC(C)=CCCC(C)(C)O` [Material 43], the “Log … (Comment Code K/L)” value was “K (Log of liquid dish neat product liquid-air partition coefficient greater than or equal to −7)”.

Regarding `COC(=O)C=Cc1ccccc1` [Material 117], the “Log … (Comment Code K/L)” value was “K (Log of liquid dish neat product liquid-air partition coefficient greater than or equal to −7)”.

Consider `CC(C)=CCC/C(C)=C\CO` [Material 64], for which the “Log … (Comment Code K/L)” value is on record as “K (Log of liquid dish neat product liquid-air partition coefficient greater than or equal to −7)”.

Regarding `C=CC(=C)CCCC(C)(C)OC(C)=O` [Material 35], the “Log … (Comment Code K/L)” value is “K (Log of liquid dish neat product liquid-air partition coefficient greater than or equal to −7)”.

Still in this data set, the particulars now being: code letters K, L.
Take `CC12CCCC(O)(C1)C1CC(C)(C)C1CC2` (stereo not shown) [Material 574]: the “Comment Code: Log of liquid dish neat product liquid-air partition coefficient” value (shortened to “Comment Code: Log”) was “K (Log of liquid dish neat product liquid-air partition coefficient greater than or equal to −7)”.

For `CC1=CCC(C23CCCC(C)(C2)OC3)C1(C)C` (stereo not shown) [Material 570], the “Comment Code: Log” value is reported as “K (Log of liquid dish neat product liquid-air partition coefficient greater than or equal to −7)”.

As to `C[C@H]1[C@@H]2C[C@H](C[C@@]13C=CC(=O)CC3)C2(C)C` [Material 1143], the “Comment Code: Log” value is listed as “K (Log of liquid dish neat product liquid-air partition coefficient greater than or equal to −7)”.

For `COc1ccccc1C=CC=O` [Material 26], the “Comment Code: Log” value is “K (Log of liquid dish neat product liquid-air partition coefficient greater than or equal to −7)”.

As to `CC(O)CCC1C(C)CCCC1(C)C` (stereo not shown) [Material 1052], the “Comment Code: Log” value was “K (Log of liquid dish neat product liquid-air partition coefficient greater than or equal to −7)”.

As to `CC1=CC(C)C2(CCCC(C)(C)C2=O)CC1` (stereo not shown) [Material 1022], the “Comment Code: Log” value is on record as “K (Log of liquid dish neat product liquid-air partition coefficient greater than or equal to −7)”.

Take `CC1CCC2C(C)(C)C3CC12CCC3(C)OC=O` (stereo not shown) [Material 566]: the “Comment Code: Log” value is “K (Log of liquid dish neat product liquid-air partition coefficient greater than or equal to −7)”.

On to `CC(=O)OC(C)CC(C)(C)c1ccccc1` (stereo not shown) [Material 1134], for which the “Comment Code: Log” value is given as “K (Log of liquid dish neat product liquid-air partition coefficient greater than or equal to −7)”.

Turning to `COc1ccc(C=O)cc1OC` [Material 1118], the “Comment Code: Log” value is given as “K (Log of liquid dish neat product liquid-air partition coefficient greater than or equal to −7)”.

On to `C=C(C)C(=O)OCCc1ccccc1` [Material 971], for which the “Comment Code: Log” value is “K (Log of liquid dish neat product liquid-air partition coefficient greater than or equal to −7)”.

Turning to `CC1(CO)CC1CC1CC2CC2(C)C1(C)C` (stereo not shown) [Material 185], the “Comment Code: Log” value was “K (Log of liquid dish neat product liquid-air partition coefficient greater than or equal to −7)”.

For the molecule `CC(C)C(=O)OCc1ccccc1` [Material 647], the “Comment Code: Log” value is listed as “K (Log of liquid dish neat product liquid-air partition coefficient greater than or equal to −7)”.

Turning to `CC(=O)CCc1ccc(O)cc1` [Material 1002], the “Comment Code: Log” value was “K (Log of liquid dish neat product liquid-air partition coefficient greater than or equal to −7)”.

With `CC(=O)OC(C)(C)C1CC=C(C)CC1` (stereo not shown) [Material 687], the “Comment Code: Log” value is given as “K (Log of liquid dish neat product liquid-air partition coefficient greater than or equal to −7)”.

Regarding `CCC(C)(C)C1CCC(O)CC1` (stereo not shown) [Material 995], the “Comment Code: Log” value is on record as “K (Log of liquid dish neat product liquid-air partition coefficient greater than or equal to −7)”.

Turning to `CCC(C)c1nccnc1OC` (stereo not shown) [Material 845], the “Comment Code: Log” value is given as “K (Log of liquid dish neat product liquid-air partition coefficient greater than or equal to −7)”.

Take `CC(C)(O)CCC1CCCCC1` [Material 496]: the “Comment Code: Log” value is “K (Log of liquid dish neat product liquid-air partition coefficient greater than or equal to −7)”.

Turning to `C=CCCC(=O)C1=CCCC2(CCCC2)C1` [Material 1038], the “Comment Code: Log” value is on record as “K (Log of liquid dish neat product liquid-air partition coefficient greater than or equal to −7)”.

As for `C=C1CC[C@@H]2[C@H]([C@H]3[C@H]1CC[C@]3(C)O)C2(C)C` [Material 1035], the “Comment Code: Log” value is “K (Log of liquid dish neat product liquid-air partition coefficient greater than or equal to −7)”.

Consider `COC(C)(C)CCCC(C)C=O` (stereo not shown) [Material 125], for which the “Comment Code: Log” value is “K (Log of liquid dish neat product liquid-air partition coefficient greater than or equal to −7)”.

Staying with this data set, now noted: codes K/L of the Comment Code, Table 1.
`C[C@H]1[C@@H]2C[C@H](C[C@@]13C=CC(=O)CC3)C2(C)C` [Material 1143]: the “Comment Code: Log” value is “K (Log of liquid dish neat product liquid-air partition coefficient greater than or equal to −7)”.
